Literature values as cited in the CATMoS acute toxicity set (Mansouri et al. 2021).
“And” between values parts separate entries of the source, which are not always exact repeats. Equal values may be shown once.

Assay: rat acute oral toxicity
Settings: in vivo

Compared with `Nc1c(Cl)cc(Cl)cc1Cl`, `Nc1cc(Cl)c(NC2=NCCN2)c(Cl)c1` is 63-fold lower in LD50: 2400 mg/kg for the first, 38 mg/kg for the second.

Compared with `CCCC(N)(CCC)CCC`, `CCCCCCOC(C)=O` is 310-fold higher in LD50: 135 mg/kg for the first, 42000 mg/kg for the second.

`CC(C)=CC(=O)Nc1ccc(O)cc1` and `CCC(C)c1ccc(O)cc1` (configuration not stated) are within 1.5-fold of each other in LD50: 1950 mg/kg for the first, 2450 mg/kg for the second.

Going from `C=Cc1ccc(Cl)cc1` to `CS(=O)(=O)c1ccc(Cl)cc1`, the LD50 falls from 5200 mg/kg to 400 mg/kg (13-fold).

Going from `C/C=C1/C[C@@H](C)[C@](O)(CO)C(=O)OCC2=CCN3CC[C@@H](OC1=O)[C@@H]23` to `CN1CCC23CCCCC2C1Cc1ccc(O)cc13` (configuration not stated), the LD50 rises from 34 mg/kg to 350 mg/kg (10-fold).

Going from `CC(C)=CC=O` to `C=C(C)C(=O)OCC(C)C`, the LD50 rises from 690 mg/kg to 9590 mg/kg (14-fold).

`O=c1[nH]c2cc(Br)ccc2o1` and `O=C1c2cc(Cl)ccc2OC2CCON12` (configuration not stated) are within 1.5-fold of each other in LD50: 1050 mg/kg for the first, 1550 mg/kg for the second.

`COC(C)CCOC(C)=O` (configuration not stated) and `CC(=O)OCC(C)c1ccccc1` (configuration not stated) are within 1.5-fold of each other in LD50: 4210 mg/kg for the first, 4300 mg/kg for the second.

First: O=C(O)c1cc(N=Nc2ccc(-c3ccc(N=Nc4c(O)ccc(/N=N/c5cc(S(=O)(=O)O)ccc5O)c4O)cc3)cc2)ccc1O
Second: CCOC(=O)C(c1c(O)c2ccccc2oc1=O)c1c(O)c2ccccc2oc1=O
The LD50 of the first is 14-fold higher: 12100 mg/kg for the first, 840 mg/kg for the second.

Going from `CC(C)CNC(=O)OCC(O)C1COc2ccccc2O1` (configuration not stated) to `O=C1CCOc2ccccc21`, the LD50 rises from 1500 mg/kg to 2650 mg/kg (1.8-fold).

First: c1coc(OCC2CO2)c1 (configuration not stated)
Second: COCCc1ccccc1
The LD50 of the first is 3.7-fold lower: 1100 mg/kg for the first, 4100 mg/kg for the second.

Compared with `CNCC(O)c1cccc(NS(C)(=O)=O)c1` (configuration not stated), `CCN(CCO)c1cccc(C)c1` is 110-fold higher in LD50: 13 mg/kg for the first, 1370 mg/kg for the second.

First: CC[C@@H](CO)NC(=O)[C@@H]1C=C2c3cccc4[nH]cc(c34)C[C@H]2N(C)C1
Second: Cn1cc(C(O)=Nc2cccc3c2C2CCC3C2=C(Cl)Cl)c(C(F)F)n1 (configuration not stated)
The LD50 of the first is 1.7-fold higher: 93 mg/kg for the first, 55 mg/kg for the second.

First: CSC(=N)N
Second: CCOP(=S)(OCC)SCC(N)=O
The LD50 of the first is 80-fold higher: 800 mg/kg for the first, 10 mg/kg for the second.

Compared with `CCOP(=S)(OCC)SC(=CC(=O)OC)C(=O)OC`, `CCC(CC)C(=O)NC(=Cc1ccc(OC)cc1)C(=O)O` is 50-fold higher in LD50: 80 mg/kg for the first, 4000 mg/kg for the second.

First: CCOC(=O)CN1CCN(C(=O)C=Cc2cc(OC)c(OC)c(OC)c2)CC1
Second: CCOc1ccccc1N1CCN(C(=O)CCC2CCCCC2)CC1
The LD50 of the first is 1.7-fold higher: 4190 mg/kg for the first, 2420 mg/kg for the second.

Going from `SCCS` to `CC(O)CN(C)C` (configuration not stated), the LD50 rises from 120 mg/kg to 1740 mg/kg (14-fold).

Going from `CCOC(=O)CN(C(=O)CCl)c1c(CC)cccc1CC` to `CCCCN(N=O)C(=O)OCC`, the LD50 falls from 2300 mg/kg to 900 mg/kg (2.6-fold).

First: COc1ccc(C(O)(c2cncnc2)C2CC2)cc1 (configuration not stated)
Second: CC(C)(Oc1ccc(C2CCCc3ccccc32)cc1)C(=O)O (configuration not stated)
The LD50 of the first is 5-fold higher: 4500 mg/kg for the first, 900 mg/kg for the second.

Going from `N#CS/C=C/SC#N` to `N#CC(F)(F)C(F)(F)C(F)(F)C(F)(F)C#N`, the LD50 rises from 77 mg/kg to 2920 mg/kg (38-fold).

First: CNC(=O)c1cc(Oc2ccc(N)c(F)c2)ccn1
Second: CN1C(C(=O)Nc2ccccn2)=C(O)c2sccc2S1(=O)=O
The LD50 of the first is 6.3-fold higher: 500 mg/kg for the first, 79 mg/kg for the second.

Compared with `CCOc1cc(Cc2cnc(N)nc2N)cc(OCC)c1-n1cccc1`, `CC1(C)N=C(N)N=C(N)N1c1ccccc1` is 3.2-fold lower in LD50: 1420 mg/kg for the first, 447 mg/kg for the second.

Going from `CCCCOCCOCCCO` to `CC(C)CCCCCCCCCCO`, the LD50 rises from 5160 mg/kg to 17000 mg/kg (3.3-fold).

First: O=C1C=CC(=NCl)C=C1
Second: O=C=Nc1ccc([N+](=O)[O-])cc1
The LD50 of the first is 16-fold lower: 100 mg/kg for the first, 1600 mg/kg for the second.

First: C[N@+]12CCCC[C@@H]1CCC(=C(c1cccs1)c1cccs1)C2
Second: Nc1ccc2c(c1)C1CCCCC1N2 (configuration not stated)
The LD50 of the first is 4.3-fold higher: 1180 mg/kg for the first, 275 mg/kg for the second.

First: CN=NNc1ccc(I)cc1
Second: ONc1ccccc1
The LD50 of the first is 5-fold higher: 499 mg/kg for the first, 100 mg/kg for the second.

Going from `COC(=O)c1cc(C(=O)OC)cc([N+](=O)[O-])c1` to `CC(=O)Oc1ccccc1C(=O)OC(=O)c1ccccc1OC(C)=O`, the LD50 falls from 10000 mg/kg to 2200 mg/kg (4.5-fold).

Going from `CC1=CC(=O)NS(=O)(=O)O1` to `Cc1oc(C)c(C(=O)Nc2ccccc2)c1C`, the LD50 falls from 7430 mg/kg to 1470 mg/kg (5.1-fold).

Compared with `CNc1nc(NC(C)C)nc(OC)n1`, `CNc1nc(Cl)c(SC)c(N2CCN(C)CC2)n1` is 3-fold lower in LD50: 2400 mg/kg for the first, 800 mg/kg for the second.

First: O=C(O)Cc1ccccc1Oc1c(Cl)c(Cl)cc(Cl)c1Cl
Second: CC(C)NP(O)(=S)Oc1cc(Cl)c(Cl)cc1Cl (configuration not stated)
The LD50 of the first is 9.8-fold higher: 303 mg/kg for the first, 31 mg/kg for the second.

`FC(F)OC(F)(F)C(F)Cl` (configuration not stated) and `CC(COc1ccc(C(C)(C)C)cc1)OS(=O)OCCCl` (configuration not stated) are within 1.5-fold of each other in LD50: 5450 mg/kg for the first, 3900 mg/kg for the second.

Compared with `C[C@@H]1CC=CC=CC=CC=C[C@H](O[C@@H]2O[C@H](C)[C@@H](O)[C@H](N)[C@@H]2O)C[C@@H]2O[C@](O)(C[C@@H](O)C[C@H]3O[C@@H]3C=CC(=O)O1)C[C@H](O)[C@H]2C(=O)O`, `CCCCc1c(OC(=O)c2cccs2)n(-c2ccccc2)n(-c2ccccc2)c1=O` is 2.3-fold lower in LD50: 2730 mg/kg for the first, 1180 mg/kg for the second.

First: O=Cc1ccccc1-c1ccccc1C=O
Second: CCOP(=S)(OC(C)C)ON1C(=O)c2ccccc2C1=O (configuration not stated)
The LD50 of the first is 11-fold higher: 2830 mg/kg for the first, 250 mg/kg for the second.

Going from `CC(N)C12CC3CC(CC(C3)C1)C2` (configuration not stated) to `CCC(CC)COC(=O)CCCCC(=O)OCC(CC)CC`, the LD50 rises from 640 mg/kg to 5620 mg/kg (8.8-fold).

`O=C(NCNC(=O)NC1C(=O)NC(=O)N1CO)NC1C(=O)NC(=O)N1CO` (configuration not stated) and `CC(C)=CCCC(C)=CCCC(=CCCC(C)=CCO)CO` are within 1.5-fold of each other in LD50: 11300 mg/kg for the first, 10900 mg/kg for the second.

Compared with `CSc1ccc(OP(C)(C)=S)cc1C`, `CCCCSc1nc2ccccc2s1` is 7.3-fold higher in LD50: 175 mg/kg for the first, 1270 mg/kg for the second.

Going from `CBr` to `CCCCc1c(C)nc(N(C)C)nc1O`, the LD50 rises from 214 mg/kg to 2350 mg/kg (11-fold).

For `CCCCCCCCCCCCOC(=O)c1ccccc1`, the LD50 is listed as 34500 mg/kg.

For `CN(C)C/C=C(/c1ccc(Br)cc1)c1cccnc1`, the LD50 is given as 900 mg/kg and 844 mg/kg.
For `CC1(C)COC(c2ccccc2)CN1` (configuration not stated), the LD50 is given as 450 mg/kg and 480 mg/kg.
